# Assay results as given in patent US11370798B2 (Vertex Pharmaceuticals Incorporated, priority 2012, dated 2022).
# System: HCT116 colorectal cancer cells
# Test: Cisplatin sensitization assay (96 h cell viability MTS);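 note: Test-compound concentration that lowers the Cisplatin IC50 by a set fold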
# Format: cell-based
# Settings: compound and Cisplatin added simultaneously, Cisplatin sensitization value
# Procedure, shortened: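 Viability read by MTS (1 h at 37° C) after 96 h co-exposure at 37° C, 5% CO2. Test compound and cisplatin were dosed simultaneously in a full concentration matrix, each 2-fold serially diluted from 10 μM final; sensitization values binned in μM.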
row,SMILES,Cisplatin Sensitization Assay
1,"Nc1nn2cc(F)cnc2c1C(=O)Nc1cncc(F)c1N1CCN(C(=O)C2CCOC2)CC1 (stereo not shown) [I-N-274, 2-amino-6-fluoro-N-(5-fluoro-4-(4-(tetrahydrofuran-3-carbonyl)piperazin-1-yl)pyridin-3-yl)pyrazolo[1,5-a]pyrimidine-3-carboxamide]",+++ (Cisplatin sensitization value of <0.02 μM)
2,"Nc1nn2cc(F)cnc2c1C(=O)Nc1cncc(F)c1N1CCC(C(=O)N2CCN(C3CC3)CC2)CC1 [I-G-13, 2-amino-N-(4-(4-(4-cyclopropylpiperazine-1-carbonyl)piperidin-1-yl)-5-fluoropyridin-3-yl)-6-fluoropyrazolo[1,5-a]pyrimidine-3-carboxamide]",+++ (Cisplatin sensitization value of <0.02 μM)
3,"CN(C)C1CCCN(c2ccncc2NC(=O)c2c(N)nn3cc(Cl)cnc23)C1 (stereo not shown) [I-N-40, 2-amino-6-chloro-N-(4-(3-(dimethylamino)piperidin-1-yl)pyridin-3-yl)pyrazolo[1,5-a]pyrimidine-3-carboxamide]",++ (Cisplatin sensitization value>0.02 μM but <0.2 μM)
4,"CN1CC2CC1CN2C(=O)C1CCN(c2c(F)cncc2NC(=O)c2c(N)nn3cc(F)cnc23)CC1 (stereo not shown) [I-G-53, 2-amino-6-fluoro-N-(5-fluoro-4-(4-(5-methyl-2,5-diazabicyclo[2.2.1]heptane-2-carbonyl)piperidin-1-yl)pyridin-3-yl)pyrazolo[1,5-a]pyrimidine-3-carboxamide]",+++ (Cisplatin sensitization value of <0.02 μM)
5,Nc1nn2cc(F)cnc2c1C(=O)Nc1cncc(F)c1N1CCN(S(=O)(=O)C2COC2)CC1 [I-N-201],+++ (Cisplatin sensitization value of <0.02 μM)
6,"CN1CC2(CCN(c3ccncc3NC(=O)c3c(N)nn4cc(F)cnc34)CC2)CC1=O [I-N-236, 2-amino-6-fluoro-N-(4-(2-methyl-3-oxo-2,8-diazaspiro[4.5]decan-8-yl)pyridin-3-yl)pyrazolo[1,5-a]pyrimidine-3-carboxamide]",+++ (Cisplatin sensitization value of <0.02 μM)
7,"CN1CCN(C(=O)C2CCN(c3c(F)cncc3NC(=O)c3c(N)nn4cc(F)cnc34)CC2)CC12CC2 [I-G-38, 2-amino-6-fluoro-N-(5-fluoro-4-(4-(4-methyl-4,7-diazaspiro[2.5]octane-7-carbonyl)piperidin-1-yl)pyridin-3-yl)pyrazolo[1,5-a]pyrimidine-3-carboxamide]",+++ (Cisplatin sensitization value of <0.02 μM)
8,"Nc1nn2cc(F)cnc2c1C(=O)Nc1cnccc1N1CCC(S(=O)(=O)N2CCN3CCC2CC3)CC1 [I-N-196, N-(4-(4-(1,4-diazabicyclo[3.2.2]nonan-4-ylsulfonyl)piperidin-1-yl)pyridin-3-yl)-2-amino-6-fluoropyrazolo[1,5-a]pyrimidine-3-carboxamide]",+++ (Cisplatin sensitization value of <0.02 μM)
9,"Nc1nn2cc(F)cnc2c1C(=O)Nc1cnccc1N1CCC(S(=O)(=O)N2CCC2)CC1 [I-N-271, 2-amino-N-(4-(4-(azetidin-1-ylsulfonyl)piperidin-1-yl)pyridin-3-yl)-6-fluoropyrazolo[1,5-a]pyrimidine-3-carboxamide]",+++ (Cisplatin sensitization value of <0.02 μM)
10,"CN1CC[C@H](Oc2ccncc2NC(=O)c2c(N)nn3cc(F)cnc23)C1 [I-O-1, (S)-2-amino-6-fluoro-N-(4-((1-methylpyrrolidin-3-yl)oxy)pyridin-3-yl)pyrazolo[1,5-a]pyrimidine-3-carboxamide]",+++ (Cisplatin sensitization value of <0.02 μM)
11,"Nc1nn2cc(F)cnc2c1C(=O)Nc1cnccc1N1CC(=O)N2CCCC2C1 (stereo not shown) [I-N-222, 2-amino-6-fluoro-N-(4-(4-oxohexahydropyrrolo[1,2-a]pyrazin-2(1H)-yl)pyridin-3-yl)pyrazolo[1,5-a]pyrimidine-3-carboxamide]",++ (Cisplatin sensitization value>0.02 μM but <0.2 μM)
12,"Nc1nn2cc(F)cnc2c1C(=O)Nc1cnccc1N1CCN2C(=O)CCCC2C1 (stereo not shown) [I-N-244, 2-amino-6-fluoro-N-(4-(6-oxohexahydro-1H-pyrido[1,2-a]pyrazin-2(6H)-yl)pyridin-3-yl)pyrazolo[1,5-a]pyrimidine-3-carboxamide]",+++ (Cisplatin sensitization value of <0.02 μM)
13,"Nc1nn2cc(F)cnc2c1C(=O)Nc1cnccc1N1CCN(S(=O)(=O)C2CCOC2)CC1 (stereo not shown) [I-N-179, 2-amino-6-fluoro-N-(4-(4-((tetrahydrofuran-3-yl)sulfonyl)piperazin-1-yl)pyridin-3-yl)pyrazolo[1,5-a]pyrimidine-3-carboxamide]",+++ (Cisplatin sensitization value of <0.02 μM)
14,"Nc1nn2cc(Cl)cnc2c1C(=O)Nc1cnccc1N1CCn2ccnc2C1 [I-N-44, 2-amino-6-chloro-N-(4-(5,6-dihydroimidazo[1,2-a]pyrazin-7(8H)-yl)pyridin-3-yl)pyrazolo[1,5-a]pyrimidine-3-carboxamide]",++ (Cisplatin sensitization value>0.02 μM but <0.2 μM)
15,"Nc1nn2cc(F)cnc2c1C(=O)Nc1cnccc1N1CCN2C(=O)CC[C@H]2C1 [I-N-217, (S)-2-amino-6-fluoro-N-(4-(6-oxohexahydropyrrolo[1,2-a]pyrazin-2(1H)-yl)pyridin-3-yl)pyrazolo[1,5-a]pyrimidine-3-carboxamide]",++ (Cisplatin sensitization value>0.02 μM but <0.2 μM)
16,"CN(C)CCOCCOc1ccncc1NC(=O)c1c(N)nn2cc(Cl)cnc12 [I-O-47, 2-amino-6-chloro-N-(4-(2-(2-(dimethylamino)ethoxy)ethoxy)pyridin-3-yl)pyrazolo[1,5-a]pyrimidine-3-carboxamide]",+ (Cisplatin sensitization value>0.2 μM but <5 μM)
17,"Nc1nn2cc(Cl)cnc2c1C(=O)Nc1cnccc1N1CCn2cncc2C1 [I-N-75, 2-amino-6-chloro-N-(4-(5,6-dihydroimidazo[1,5-a]pyrazin-7(8H)-yl)pyridin-3-yl)pyrazolo[1,5-a]pyrimidine-3-carboxamide]",+++ (Cisplatin sensitization value of <0.02 μM)
18,"Nc1nn2cc(F)cnc2c1C(=O)Nc1cnccc1N1CCCCCC1 [I-N-264, 2-amino-N-(4-(azepan-1-yl)pyridin-3-yl)-6-fluoropyrazolo[1,5-a]pyrimidine-3-carboxamide]",+ (Cisplatin sensitization value>0.2 μM but <5 μM)
19,"Nc1nn2cc(F)cnc2c1C(=O)Nc1cnccc1N1CCC(S(=O)(=O)N2CCOCC2)CC1 [I-N-170, 2-amino-6-fluoro-N-(4-(4-(morpholinosulfonyl)piperidin-1-yl)pyridin-3-yl)pyrazolo[1,5-a]pyrimidine-3-carboxamide]",+++ (Cisplatin sensitization value of <0.02 μM)
20,"C[C@H]1CN(C(=O)C2CCN(c3c(F)cncc3NC(=O)c3c(N)nn4cc(F)cnc34)CC2)CCN1C [I-G-47, (S)-2-amino-N-(4-(4-(3,4-dimethylpiperazine-1-carbonyl)piperidin-1-yl)-5-fluoropyridin-3-yl)-6-fluoropyrazolo[1,5-a]pyrimidine-3-carboxamide]",+++ (Cisplatin sensitization value of <0.02 μM)
21,"Nc1nn2cc(F)cnc2c1C(=O)Nc1cnccc1OC1CN2CCC1CC2 (racemic) [I-O-6, (R,S)-2-amino-6-fluoro-N-(4-(quinuclidin-3-yloxy)pyridin-3-yl)pyrazolo[1,5-a]pyrimidine-3-carboxamide]",+++ (Cisplatin sensitization value of <0.02 μM)
22,"CN1CCC(C(=O)N2CC=C(c3c(F)cncc3NC(=O)c3c(N)nn4cc(F)cnc34)CC2)CC1 [I-C-38, 2-amino-6-fluoro-N-(5-fluoro-1′-(1-methylpiperidine-4-carbonyl)-1′,2′,3′,6′-tetrahydro-[4,4′-bipyridin]-3-yl)pyrazolo[1,5-a]pyrimidine-3-carboxamide]",++ (Cisplatin sensitization value>0.02 μM but <0.2 μM)
23,"CN1CCC[C@@H]1C(=O)N1CCN(c2c(F)cncc2NC(=O)c2c(N)nn3cc(F)cnc23)CC1 [I-N-181, (R)-2-amino-6-fluoro-N-(5-fluoro-4-(4-(1-methylpyrrolidine-2-carbonyl)piperazin-1-yl)pyridin-3-yl)pyrazolo[1,5-a]pyrimidine-3-carboxamide]",+++ (Cisplatin sensitization value of <0.02 μM)
24,"CN(C)S(=O)(=O)C1CCN(c2c(F)cncc2NC(=O)c2c(N)nn3cc(F)cnc23)CC1 [I-N-146, 2-amino-N-(4-(4-(N,N-dimethylsulfamoyl)piperidin-1-yl)-5-fluoropyridin-3-yl)-6-fluoropyrazolo[1,5-a]pyrimidine-3-carboxamide]",+++ (Cisplatin sensitization value of <0.02 μM)
25,"Nc1nn2cc(Cl)cnc2c1C(=O)Nc1cnccc1O[C@H]1CCNC1 [I-O-76, (S)-2-amino-6-chloro-N-(4-(pyrrolidin-3-yloxy)pyridin-3-yl)pyrazolo[1,5-a]pyrimidine-3-carboxamide]",++ (Cisplatin sensitization value>0.02 μM but <0.2 μM)
26,"CN1CCN(C(=O)N2CCN(c3c(F)cncc3NC(=O)c3c(N)nn4cc(F)cnc34)CC2)CC1 [I-N-140, 2-amino-6-fluoro-N-(5-fluoro-4-(4-(4-methylpiperazine-1-carbonyl)piperazin-1-yl)pyridin-3-yl)pyrazolo[1,5-a]pyrimidine-3-carboxamide]",+++ (Cisplatin sensitization value of <0.02 μM)
27,"Nc1nn2cc(F)cnc2c1C(=O)Nc1cncc(F)c1N1CCN(CC(=O)N2CCC2)CC1 [I-N-228, 2-amino-N-(4-(4-(2-(azetidin-1-yl)-2-oxoethyl)piperazin-1-yl)-5-fluoropyridin-3-yl)-6-fluoropyrazolo[1,5-a]pyrimidine-3-carboxamide]",+++ (Cisplatin sensitization value of <0.02 μM)
28,"CN1CCC(C(=O)N2CCC(c3ccncc3NC(=O)c3c(N)nn4cc(F)cnc34)CC2)CC1 [I-C-16, 2-amino-6-fluoro-N-(4-(1-(1-methylpiperidine-4-carbonyl)piperidin-4-yl)pyridin-3-yl)pyrazolo[1,5-a]pyrimidine-3-carboxamide]",+ (Cisplatin sensitization value>0.2 μM but <5 μM)
